From ChEMBL document CHEMBL4004838, “Design and synthesis of novel phenyl -1, 4-beta-carboline-hybrid molecules as potential anticancer agents” (Eur J Med Chem, 2017)
Active and inactive are the calls of the source. The calls are words filed in the database; no cut-off is given here.

Key:
[1] = species: Bos taurus; experiment: Binding affinity to calf thymus DNA assessed as induction of hyperchromic shift at 20 uM sonicated for 35 to 40 mins by UV-vis spectrophotometric analysis
[2] = test system: CCRF-CEM; experiment: Growth inhibition of human CCRF-CEM cells incubated for 48 hrs by sulforhodamine B assay; format: functional
[3] = test system: RPMI-8226; experiment: Growth inhibition of human RPMI8226 cells incubated for 48 hrs by sulforhodamine B assay; format: functional; conditions: RPMI-8226, 48 h
[4] = test system: NCI-H322M; experiment: Growth inhibition of human NCI-H322M cells incubated for 48 hrs by sulforhodamine B assay; format: functional
[5] = test system: M14; experiment: Growth inhibition of human M14 cells incubated for 48 hrs by sulforhodamine B assay; format: functional; conditions: M14, 48 h
[6] = test system: SK-MEL-5; experiment: Growth inhibition of human SK-MEL-5 cells incubated for 48 hrs by sulforhodamine B assay; format: functional; conditions: SK-MEL-5, 48 h
[7] = test system: NCI/ADR-RES; experiment: Growth inhibition of human NCI-ADR-RES cells incubated for 48 hrs by sulforhodamine B assay; format: functional
[8] = test system: BT-549; experiment: Growth inhibition of human BT549 cells incubated for 48 hrs by sulforhodamine B assay; format: functional; conditions: BT-549, 48 h
[9] = test system: T47D; experiment: Growth inhibition of human T47D cells incubated for 48 hrs by sulforhodamine B assay; format: functional
[10] = test system: A549; experiment: Growth inhibition of human A549/ATCC cells assessed as cell growth at 0.01 uM incubated for 48 hrs by sulforhodamine B assay relative to control; format: functional; conditions: A549, 48 h, read-out: Activity
[11] = test system: NCI-H226; experiment: Growth inhibition of human NCI-H226 cells assessed as cell growth at 0.01 uM incubated for 48 hrs by sulforhodamine B assay relative to control; format: functional; conditions: NCI-H226, 48 h, read-out: Activity
[12] = test system: HT-29; experiment: Growth inhibition of human HT-29 cells assessed as cell growth at 0.01 uM incubated for 48 hrs by sulforhodamine B assay relative to control; format: functional; conditions: HT-29, 48 h, read-out: Activity
[13] = test system: UACC-62; experiment: Growth inhibition of human UACC62 cells assessed as cell growth at 0.01 uM incubated for 48 hrs by sulforhodamine B assay relative to control; format: functional; conditions: UACC-62, 48 h, read-out: Activity
[14] = test system: OVCAR-8; experiment: Growth inhibition of human OVCAR8 cells assessed as cell growth at 0.01 uM incubated for 48 hrs by sulforhodamine B assay relative to control; format: functional; conditions: OVCAR-8, 48 h, read-out: Activity
[15] = test system: A498; experiment: Growth inhibition of human A498 cells assessed as cell growth at 0.01 uM incubated for 48 hrs by sulforhodamine B assay relative to control; format: functional; conditions: A498, 48 h, read-out: Activity
[16] = test system: MDA-MB-231; experiment: Growth inhibition of human MDA-MB-231 cells assessed as cell growth at 0.01 uM incubated for 48 hrs by sulforhodamine B assay relative to control; format: functional; conditions: MDA-MB-231, 48 h, read-out: Activity
[17] = test system: OVCAR-3; experiment: Growth inhibition of human OVCAR3 cells assessed as cell growth at 0.1 uM incubated for 48 hrs by sulforhodamine B assay relative to control; format: functional; conditions: OVCAR-3, 48 h, read-out: Activity
[18] = test system: MDA-MB-231; experiment: Growth inhibition of human MDA-MB-231 cells assessed as cell growth at 0.1 uM incubated for 48 hrs by sulforhodamine B assay relative to control; format: functional; conditions: MDA-MB-231, 48 h, read-out: Activity
[19] = test system: RPMI-8226; experiment: Growth inhibition of human RPMI8226 cells assessed as cell growth at 1 uM incubated for 48 hrs by sulforhodamine B assay relative to control; format: functional; conditions: RPMI-8226, 48 h, read-out: Activity
[20] = test system: SR; experiment: Growth inhibition of human SR cells assessed as cell growth at 1 uM incubated for 48 hrs by sulforhodamine B assay relative to control; format: functional; conditions: read-out: Activity
[21] = test system: KM12; experiment: Growth inhibition of human KM12 cells assessed as cell growth at 1 uM incubated for 48 hrs by sulforhodamine B assay relative to control; format: functional; conditions: KM12, 48 h, read-out: Activity
[22] = test system: SF-268; experiment: Growth inhibition of human SF268 cells assessed as cell growth at 1 uM incubated for 48 hrs by sulforhodamine B assay relative to control; format: functional; conditions: SF-268, 48 h, read-out: Activity
[23] = test system: BT-549; experiment: Growth inhibition of human BT549 cells assessed as cell growth at 1 uM incubated for 48 hrs by sulforhodamine B assay relative to control; format: functional; conditions: BT-549, 48 h, read-out: Activity
[24] = test system: MDA-MB-468; experiment: Growth inhibition of human MDA-MB-468 cells assessed as cell growth at 1 uM incubated for 48 hrs by sulforhodamine B assay relative to control; format: functional; conditions: MDA-MB-468, 48 h, read-out: Activity
[25] = test system: NCI-H522; experiment: Growth inhibition of human NCI-H522 cells assessed as cell growth at 100 uM incubated for 48 hrs by sulforhodamine B assay relative to control; format: functional; conditions: NCI-H522, 48 h, read-out: Activity
[26] = test system: KM12; experiment: Growth inhibition of human KM12 cells assessed as cell growth at 100 uM incubated for 48 hrs by sulforhodamine B assay relative to control; format: functional; conditions: KM12, 48 h, read-out: Activity
[27] = test system: SK-MEL-28; experiment: Growth inhibition of human SK-MEL-28 cells assessed as cell growth at 100 uM incubated for 48 hrs by sulforhodamine B assay relative to control; format: functional; conditions: SK-MEL-28, 48 h, read-out: Activity
[28] = test system: IGROV-1; experiment: Growth inhibition of human IGROV1 cells assessed as cell growth at 100 uM incubated for 48 hrs by sulforhodamine B assay relative to control; format: functional; conditions: IGROV-1, 48 h, read-out: Activity
[29] = test system: CAKI-1; experiment: Growth inhibition of human Caki1 cells assessed as cell growth at 100 uM incubated for 48 hrs by sulforhodamine B assay relative to control; format: functional; conditions: CAKI-1, 48 h, read-out: Activity
[30] = read-out: LC50 (the source's name)
[31] = read-out: pLC50 (the source's name) (converted)

c1ccc2c3c([nH]c2c1)C(c1ccc(C2NCCc4c2[nH]c2ccccc42)cc1)NCC3 (racemic)
Activity [1]: Active | CC50 [2, 30]: 1.22 µM | GI50 ([2]; read-out: pGI50 (converted)): 0.457 µM | CC50 [2, 31]: 12.3 µM | TGI ([2]; read-out: pTGI (converted)): 2.04 µM | CC50 [3, 30]: 1.23 µM | GI50 ([3]; read-out: pGI50 (converted)): 0.339 µM | CC50 [3, 31]: 12.3 µM | TGI ([3]; read-out: pTGI (converted)): 1.1 µM | GI50 ([4]; read-out: GI50): 1.25 µM | CC50 [4, 30]: 5.68 µM | TGI ([4]; read-out: TGI): 2.66 µM | GI50 ([4]; read-out: pGI50 (converted)): 1.26 µM | CC50 [4, 31]: 5.62 µM | TGI ([4]; read-out: pTGI (converted)): 2.69 µM | CC50 [5, 30]: 4.65 µM | GI50 ([5]; read-out: pGI50 (converted)): 0.407 µM | CC50 [5, 31]: 4.68 µM | TGI ([5]; read-out: pTGI (converted)): 1.58 µM | GI50 ([6]; read-out: GI50): 1.7 µM | CC50 [6, 30]: 5.75 µM | TGI ([6]; read-out: TGI): 3.13 µM | GI50 ([6]; read-out: pGI50 (converted)): 1.7 µM | CC50 [6, 31]: 5.75 µM | TGI ([6]; read-out: pTGI (converted)): 3.16 µM | GI50 ([7]; read-out: GI50): 2.1 µM | CC50 [7, 30]: > 1 µM | TGI ([7]; read-out: TGI): 7.81 µM | GI50 ([7]; read-out: pGI50 (converted)): 2.09 µM | CC50 ([7]; read-out: pLC50 (converted)): > 100 µM | TGI ([7]; read-out: pTGI (converted)): 7.76 µM | GI50 ([8]; read-out: GI50): 1.11 µM | CC50 [8, 30]: 5.37 µM | TGI ([8]; read-out: TGI): 2.44 µM | GI50 ([8]; read-out: pGI50 (converted)): 11.2 µM | CC50 [8, 31]: 53.7 µM | TGI ([8]; read-out: pTGI (converted)): 24.5 µM | GI50 ([9]; read-out: GI50): 1.31 µM | CC50 [9, 30]: 7.13 µM | TGI ([9]; read-out: TGI): 3.06 µM | GI50 ([9]; read-out: pGI50 (converted)): 1.32 µM | CC50 [9, 31]: 7.08 µM | TGI ([9]; read-out: pTGI (converted)): 3.09 µM | growth at 0.01 µM [10]: 104% | growth at 0.01 µM [11]: 97% | growth at 0.01 µM [12]: 104% | growth at 0.01 µM [13]: 96% | growth at 0.01 µM [14]: 101% | growth at 0.01 µM [15]: 73% | growth at 0.01 µM [16]: 97% | growth at 0.1 µM [17]: 96% | growth at 0.1 µM [18]: 97% | growth at 1 µM [19]: 2% | growth at 1 µM [20]: 36% | growth at 1 µM [21]: 54% | growth at 1 µM [22]: 57% | growth at 1 µM [23]: 85% | growth at 1 µM [24]: 11% | growth at 100 µM [25]: 81% | growth at 100 µM [26]: 88% | growth at 100 µM [27]: 93% | growth at 100 µM [28]: 89% | growth at 100 µM [29]: -98%

c1ccc2[nH]c(-c3ccc(-c4nccc5c4[nH]c4ccccc45)cc3)nc2c1
Activity [1]: Active | GI50 ([2]; read-out: GI50): 3.12 µM | CC50 [2, 30]: > 1 µM | TGI ([2]; read-out: TGI): 9.12 µM | GI50 ([2]; read-out: pGI50 (converted)): 3.09 µM | CC50 [2, 31]: > 100 µM | TGI ([2]; read-out: pTGI (converted)): 9.12 µM | GI50 ([3]; read-out: GI50): 2.48 µM | CC50 [3, 30]: > 1 µM | TGI ([3]; read-out: TGI): 5.61 µM | GI50 ([3]; read-out: pGI50 (converted)): 2.45 µM | CC50 [3, 31]: > 100 µM | TGI ([3]; read-out: pTGI (converted)): 5.62 µM | GI50 ([4]; read-out: GI50): 2.86 µM | CC50 [4, 30]: 4.41 µM | TGI ([4]; read-out: TGI): 8.9 µM | GI50 ([4]; read-out: pGI50 (converted)): 2.88 µM | CC50 [4, 31]: 43.7 µM | TGI ([4]; read-out: pTGI (converted)): 8.91 µM | GI50 ([5]; read-out: GI50): 1.79 µM | CC50 [5, 30]: 7.12 µM | TGI ([5]; read-out: TGI): 3.57 µM | GI50 ([5]; read-out: pGI50 (converted)): 1.78 µM | CC50 [5, 31]: 7.08 µM | TGI ([5]; read-out: pTGI (converted)): 3.55 µM | CC50 [6, 30]: 4.42 µM | GI50 ([6]; read-out: pGI50 (converted)): 3.72 µM | CC50 [6, 31]: 44.7 µM | TGI ([6]; read-out: pTGI (converted)): 14.5 µM | GI50 ([7]; read-out: GI50): 3.5 µM | CC50 [7, 30]: > 1 µM | GI50 ([7]; read-out: pGI50 (converted)): 3.47 µM | CC50 ([7]; read-out: pLC50 (converted)): > 100 µM | TGI ([7]; read-out: pTGI (converted)): 15.1 µM | GI50 ([8]; read-out: GI50): 2.12 µM | CC50 [8, 30]: 7.21 µM | TGI ([8]; read-out: TGI): 5.42 µM | GI50 ([8]; read-out: pGI50 (converted)): 2.14 µM | CC50 [8, 31]: 72.4 µM | TGI ([8]; read-out: pTGI (converted)): 5.37 µM | GI50 ([9]; read-out: GI50): 2.02 µM | CC50 [9, 30]: 8.34 µM | TGI ([9]; read-out: TGI): 6.19 µM | GI50 ([9]; read-out: pGI50 (converted)): 2.04 µM | CC50 [9, 31]: 83.2 µM | TGI ([9]; read-out: pTGI (converted)): 6.17 µM | growth at 0.01 µM [10]: 98% | growth at 0.01 µM [11]: 93% | growth at 0.01 µM [12]: 100% | growth at 0.01 µM [13]: 89% | growth at 0.01 µM [14]: 100% | growth at 0.01 µM [15]: 96% | growth at 0.01 µM [16]: 90% | growth at 0.1 µM [17]: 103% | growth at 0.1 µM [18]: 94% | growth at 1 µM [19]: 106% | growth at 1 µM [20]: 88% | growth at 1 µM [21]: 89% | growth at 1 µM [22]: 93% | growth at 1 µM [23]: 90% | growth at 1 µM [24]: 98% | growth at 100 µM [25]: 46% | growth at 100 µM [26]: 76% | growth at 100 µM [27]: 69% | growth at 100 µM [28]: 47% | growth at 100 µM [29]: 76%
